{"source": "BindingDB's records for doi:10.1016/j.ejmech.2023.115542", "about": "(University of Turin, 2023)", "assay": "Inhibition of NLRP3-dependent pyroptosis in PMA-differentiated human THP-1 cells assessed as inhibition of LPS/ATP-induced cell death pretreated for 4 hrs with LPS followed by incubation with compound for 1 hr and later treated with ATP for 1.5 hrs by LDH assay", "data": [{"molecule": "CCOC(=O)Cn1nc(Cc2ccccc2Cl)oc1=O", "values": [{"measurement": "IC50", "value": 1550, "unit": "nM"}]}]}
